According to ChEMBL document CHEMBL4673185 (RSC Med Chem, 2020):
Residues, ends and D or L forms follow the SMILES beside them.

Target: T1, Acid-sensing ion channel 3 (Rattus norvegicus, UniProt O35240)
T1 sequence (O35240 whole entry): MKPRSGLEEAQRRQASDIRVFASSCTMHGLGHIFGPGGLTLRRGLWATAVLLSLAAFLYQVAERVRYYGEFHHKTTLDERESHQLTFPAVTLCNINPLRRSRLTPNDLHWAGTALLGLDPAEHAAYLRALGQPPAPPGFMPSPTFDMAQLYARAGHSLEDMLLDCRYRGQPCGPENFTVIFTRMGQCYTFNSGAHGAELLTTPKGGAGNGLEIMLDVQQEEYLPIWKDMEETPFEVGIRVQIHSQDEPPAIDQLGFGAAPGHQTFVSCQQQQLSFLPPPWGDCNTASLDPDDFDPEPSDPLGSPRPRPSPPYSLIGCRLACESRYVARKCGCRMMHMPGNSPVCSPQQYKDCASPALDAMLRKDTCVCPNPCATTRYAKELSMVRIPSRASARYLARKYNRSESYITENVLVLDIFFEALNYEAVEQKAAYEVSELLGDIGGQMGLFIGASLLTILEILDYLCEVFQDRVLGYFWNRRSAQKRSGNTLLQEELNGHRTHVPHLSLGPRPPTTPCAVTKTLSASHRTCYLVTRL
Test: Modulation of rat ASIC3 expressed in Xenopus laevis oocytes at -70 mV holding potential by two-electrode voltage clamp method
Format: cell-based

For N=C(N)NCCC[C@H](NC(=O)[C@@H]1CCCN1C(=O)[C@@H](N)CCCNC(=N)N)C(=O)N[C@@H](Cc1ccccc1)C(=O)O (H-RPRF-OH), the EC50 was 3 µM.
